According to patent US12077503B2, “Substituted cyclic amides and their use as herbicides” (FMC CORPORATION, priority 2015, dated 2024):
Where two headings read alike, the source gives them in different places.

Key:
Type in all cases: in vivo
[1] = test system: sedge, umbrella (small-flower umbrella sedge, Cyperus difformis); experiment: Test B flooded paddy test; details: Cyperus difformis, 250 g ai/ha, Flood; 0 to 100 scale where 0 is no effect and 100 is complete control; read-out: Sedge, Umbrella plant response rating
Summary of the method: (§1)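 Plants at 2-leaf stage flooded to 3 cm above soil, with compounds applied directly to paddy water and that depth maintained. Plants kept in greenhouse 13–15 d. Visual rating versus controls on a 0 (no effect) to 100 (complete control) scale.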

[2] = test system: barnyardgrass (Echinochloa crus-galli); experiment: Test B flooded paddy test; details: Echinochloa crus-galli, 250 g ai/ha, Flood; 0 to 100 scale where 0 is no effect and 100 is complete control; read-out: Barnyardgrass plant response rating
Summary of the method: as §1

[3] = test system: ducksalad (Heteranthera limosa); experiment: Test B flooded paddy test; details: Heteranthera limosa, 250 g ai/ha, Flood; 0 to 100 scale where 0 is no effect and 100 is complete control; read-out: Ducksalad plant response rating
Summary of the method: as §1

rice (Oryra sativa) = experiment: Test B flooded paddy test; details: Oryza sativa, 250 g ai/ha, Flood; 0 to 100 scale where 0 is no effect and 100 is complete control; read-out: Rice plant response rating
Summary of the method: as §1

[4] = test system: Galium (catchweed bedstraw, Galium aparine); experiment: Test A postemergence; details: Galium, post-emergence, 240 h; for pest or weed control at 125 g/ha: 125 g ai/ha; for pest or weed control at 500 g/ha: 500 g ai/ha, visual injury, 0 to 100 scale (0 no effect, 100 complete control)
Summary of the method: (§2)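 Compounds were formulated in a non-phytotoxic solvent mixture with surfactant and applied as a preemergence directed soil spray after seeding, or sprayed postemergence over plants 2 to 10 cm tall at the one- to two-leaf stage. Evaluation after about 10 d compared treated with untreated controls, using a scale from 0 (no effect) to 100 (complete control).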

[5] = test system: ryegrass, Italian (Italian ryegrass, Lolium multiflorum); experiment: Test A postemergence; details: Lolium multiflorum, post-emergence, 240 h; for pest or weed control at 125 g/ha: 125 g ai/ha; for pest or weed control at 500 g/ha: 500 g ai/ha, visual injury, 0 to 100 scale (0 no effect, 100 complete control)
Summary of the method: as §2

[6] = test system: blackgrass (Alopecurus myosuroides); experiment: Test A postemergence; details: Alopecurus myosuroides, post-emergence, 240 h, read-out: Plant response rating, Blackgrass; for pest or weed control at 125 g/ha: 125 g ai/ha, Postemergence, visual injury after approximately 10 d, 0 to 100 scale where 0 is no effect and 100 is complete control; for pest or weed control at 500 g/ha: 500 g ai/ha, postemergence, visual injury, 0 to 100 scale (0 no effect, 100 complete control), approx. 10 d
Summary of the method: as §2

[7] = test system: barnyardgrass (Echinochloa crus-galli); experiment: Test A postemergence; details: Echinochloa crus-galli, post-emergence, 240 h, read-out: Plant response rating, Barnyardgrass; for pest or weed control at 125 g/ha: 125 g ai/ha, Postemergence, visual injury after approximately 10 d, 0 to 100 scale where 0 is no effect and 100 is complete control; for pest or weed control at 500 g/ha: 500 g ai/ha, postemergence, visual injury, 0 to 100 scale (0 no effect, 100 complete control), approx. 10 d
Summary of the method: as §2

[8] = test system: giant foxtail (Setaria faberii); experiment: Test A postemergence; details: Setaria faberi, post-emergence, 240 h; for pest or weed control at 125 g/ha: 125 g ai/ha; for pest or weed control at 500 g/ha: 500 g ai/ha, visual injury, 0 to 100 scale (0 no effect, 100 complete control)
Summary of the method: as §2

corn (Zea mays) = experiment: Test A postemergence; details: Zea mays, post-emergence, 240 h; for Corn plant response rating (crop injury, 0 = no effect, 100 = complete kill) at 125 g/ha: 125 g ai/ha, Postemergence, visual injury after approximately 10 d, 0 to 100 scale where 0 is no effect and 100 is complete control; for Corn plant response rating (crop injury, 0 = no effect, 100 = complete kill) at 500 g/ha: 500 g ai/ha, postemergence, visual injury, 0 to 100 scale (0 no effect, 100 complete control), approx. 10 d
Summary of the method: as §2

[9] = test system: pigweed (Amaranthus retroflexus); experiment: Test A postemergence; details: Amaranthus retroflexus, post-emergence, 240 h; for pest or weed control at 125 g/ha: 125 g ai/ha; for pest or weed control at 500 g/ha: 500 g ai/ha, visual injury, 0 to 100 scale (0 no effect, 100 complete control)
Summary of the method: as §2

[10] = test system: ragweed (common ragweed, Ambrosia elatior); experiment: Test A postemergence; details: Ambrosia artemisiifolia, post-emergence, 240 h; for pest or weed control at 125 g/ha: 125 g ai/ha; for pest or weed control at 500 g/ha: 500 g ai/ha, visual injury, 0 to 100 scale (0 no effect, 100 complete control)
Summary of the method: as §2

[11] = test system: wheat (Triticum aestivum); experiment: Test A postemergence; details: Triticum aestivum, post-emergence, 240 h; for plant injury at 125 g/ha: 125 g ai/ha; for plant injury at 500 g/ha: 500 g ai/ha, visual injury, 0 to 100 scale (0 no effect, 100 complete control)
Summary of the method: as §2

Kochia (Kochia scoparia) = experiment: Test A postemergence; details: Bassia scoparia, post-emergence, 240 h; for pest or weed control at 125 g/ha: 125 g ai/ha; for pest or weed control at 500 g/ha: 500 g ai/ha, visual injury, 0 to 100 scale (0 no effect, 100 complete control)
Summary of the method: as §2

[12] = test system: pigweed (Amaranthus retroflexus); experiment: Test A preemergence; details: Amaranthus retroflexus, pre-emergence, 240 h; for pest or weed control at 125 g/ha: 125 g ai/ha, Preemergence, visual injury rating after approximately 10 d, read-out: Pigweed plant response rating (0 to 100 scale, 0 is no effect, 100 is complete control); for pest or weed control at 500 g/ha: 500 g ai/ha, preemergence, visual injury rating about 10 d after treatment, 0 to 100 scale (0 no effect, 100 complete control), read-out: Pigweed plant response rating
[13] = postemergence, approx. 10 d, read-out: Plant response rating, Galium
[14] = postemergence, approx. 10 d, read-out: Plant response rating, Ryegrass, Italian
[15] = postemergence, approx. 10 d, read-out: Plant response rating, Foxtail, Giant
[16] = postemergence, approx. 10 d, read-out: Plant response rating, Pigweed
[17] = postemergence, approx. 10 d, read-out: Plant response rating, Ragweed
[18] = postemergence, approx. 10 d, read-out: Plant response rating, Wheat
[19] = postemergence, approx. 10 d, read-out: Plant response rating, Kochia

In the case of `Cc1cc([C@H]2CN(C)C(=O)[C@@H]2C(=O)Nc2cccc(F)c2F)cc(C)c1Br` [Compound 1024], the pest or weed control at 250 g/ha [1] is reported as 0%, the pest or weed control at 250 g/ha [2] is reported as 40% and the pest or weed control at 250 g/ha [3] is reported as 70%. It also gave a pest or weed control at 250 g/ha (rice (Oryra sativa)) of 0%, a pest or weed control at 125 g/ha ([4]; Postemergence, visual injury after approximately 10 d, 0 to 100 scale where 0 is no effect and 100 is complete control, read-out: Plant response rating, Galium) of 60% and a pest or weed control at 500 g/ha [4, 13] of 60%. It also gave a pest or weed control at 125 g/ha ([5]; Postemergence, visual injury after approximately 10 d, 0 to 100 scale where 0 is no effect and 100 is complete control, read-out: Plant response rating, Ryegrass, Italian) of 30%, a pest or weed control at 500 g/ha [5, 14] of 30% and a pest or weed control at 125 g/ha [6] of 0%. The pest or weed control at 500 g/ha [6] was 20%, the pest or weed control at 125 g/ha [7] was 90% and the pest or weed control at 500 g/ha [7] was 90%. The pest or weed control at 125 g/ha ([8]; Postemergence, visual injury after approximately 10 d, 0 to 100 scale where 0 is no effect and 100 is complete control, read-out: Plant response rating, Foxtail, Giant) was 70%, the pest or weed control at 500 g/ha [8, 15] was 90% and the Corn plant response rating (crop injury, 0 = no effect, 100 = complete kill) at 125 g/ha (corn (Zea mays)) was 70%. The Corn plant response rating (crop injury, 0 = no effect, 100 = complete kill) at 500 g/ha (corn (Zea mays)) was 70%, the pest or weed control at 125 g/ha ([9]; Postemergence, visual injury after approximately 10 d, 0 to 100 scale where 0 is no effect and 100 is complete control, read-out: Plant response rating, Pigweed) was 30% and the pest or weed control at 500 g/ha [9, 16] was 50%. The pest or weed control at 125 g/ha ([10]; Postemergence, visual injury after approximately 10 d, 0 to 100 scale where 0 is no effect and 100 is complete control, read-out: Plant response rating, Ragweed) was 0%, the pest or weed control at 500 g/ha [10, 17] was 0% and the plant injury at 125 g/ha ([11]; Postemergence, visual injury after approximately 10 d, 0 to 100 scale where 0 is no effect and 100 is complete control, read-out: Plant response rating, Wheat) was 0%. For the same compound, the plant injury at 500 g/ha [11, 18] was 30%, the pest or weed control at 125 g/ha (Kochia (Kochia scoparia); Postemergence, visual injury after approximately 10 d, 0 to 100 scale where 0 is no effect and 100 is complete control, read-out: Plant response rating, Kochia) was 50% and the pest or weed control at 500 g/ha (Kochia (Kochia scoparia); [19]) was 60%. It also gave a pest or weed control at 125 g/ha [12] of 30% and a pest or weed control at 500 g/ha [12] of 50%.

`CN1CC[C@H](c2ccccc2)[C@@H](C(=O)Nc2ccccc2F)C1=O` [Compound 1032] showed a pest or weed control at 250 g/ha [1] of 0%, a pest or weed control at 250 g/ha [2] of 0% and a pest or weed control at 250 g/ha [3] of 20%. The pest or weed control at 250 g/ha (rice (Oryra sativa)) was 0%, the pest or weed control at 125 g/ha ([4]; postemergence, visual injury on 0 to 100 scale (0 no effect, 100 complete control), approx. 10 d, read-out: Galium plant response rating) was 0% and the pest or weed control at 500 g/ha [4, 13] was 0%. For the same compound, the pest or weed control at 125 g/ha ([5]; postemergence, visual injury on 0 to 100 scale (0 no effect, 100 complete control), approx. 10 d, read-out: Ryegrass, Italian plant response rating) was 0%, the pest or weed control at 500 g/ha [5, 14] was 0% and the pest or weed control at 125 g/ha [6] was 0%. For the same compound, the pest or weed control at 500 g/ha [6] was 0%, the pest or weed control at 125 g/ha [7] was 0% and the pest or weed control at 500 g/ha [7] was 0%. It also gave a pest or weed control at 125 g/ha ([8]; postemergence, visual injury on 0 to 100 scale (0 no effect, 100 complete control), approx. 10 d, read-out: Foxtail, Giant plant response rating) of 0%, a pest or weed control at 500 g/ha [8, 15] of 0% and a Corn plant response rating (crop injury, 0 = no effect, 100 = complete kill) at 125 g/ha (corn (Zea mays)) of 0%. For the same compound, the Corn plant response rating (crop injury, 0 = no effect, 100 = complete kill) at 500 g/ha (corn (Zea mays)) was 0%, the pest or weed control at 125 g/ha ([9]; postemergence, visual injury on 0 to 100 scale (0 no effect, 100 complete control), approx. 10 d, read-out: Pigweed plant response rating) was 0% and the pest or weed control at 500 g/ha [9, 16] was 0%. The pest or weed control at 125 g/ha ([10]; postemergence, visual injury on 0 to 100 scale (0 no effect, 100 complete control), approx. 10 d, read-out: Ragweed plant response rating) was 0%, the pest or weed control at 500 g/ha [10, 17] was 0% and the plant injury at 125 g/ha ([11]; postemergence, visual injury on 0 to 100 scale (0 no effect, 100 complete control), approx. 10 d, read-out: Wheat plant response rating) was 0%. For the same compound, the plant injury at 500 g/ha [11, 18] was 0%, the pest or weed control at 125 g/ha (Kochia (Kochia scoparia); postemergence, visual injury on 0 to 100 scale (0 no effect, 100 complete control), approx. 10 d, read-out: Kochia plant response rating) was 0% and the pest or weed control at 500 g/ha (Kochia (Kochia scoparia); [19]) was 0%. For the same compound, the pest or weed control at 125 g/ha [12] was 0% and the pest or weed control at 500 g/ha [12] was 0%.
